# System: CD4+ T cells
# Assay: IFN-γ ELISPOT of CD4+ T cells presensitized with overlapping NY-ESO-1 18 mer peptides
# Type: cell-based, human
# Conditions: for Patient T cells 1 / Patient T cells 2 / Patient T cells 3: IFN-γ ELISPOT; for Patient T cells 1: day 12, CD4+ T cells of patient 1, autologous peptide pulsed EBV-B cells as targets; for Patient T cells 2: day 12, CD4+ T cells of patient 2, autologous peptide pulsed EBV-B cells as targets; for Patient T cells 3: day 12, CD4+ T cells of patient 3, autologous peptide pulsed EBV-B cells as targets; for patients whose CD4+ T cells recognized the peptide: three patients tested
# Description: Peripheral blood mono-nuclear cells (“PBMCs”) were separated from heparinized blood via Ficoll density gradient separation, using standard, art recognized techniques. Once this was done, the CD4^+ and CD8^+ T cells were separated from each other using magnetic cell sorting techniques which are well known to the art, producing CD4^+, CD8^+, and CD4^−/CD8^− cell populations.
# A series of 18 mer peptides were prepared from the amino acid sequence of NY-ESO-1 as set forth in, e.g., U.S. Pat. No. 5,804,381, incorporated by reference. The peptides were designed to cover the entire sequence of NY-ESO-1, and to provide overlap.
# The peptides were then individually pulsed to antigen presenting cells (“APCs”). These were CD4^−/CD8^− PBMCs taken from the same subjects who had provided the CD4^+ and CD8^+ cells. These APCs were irradiated with 3000 rads, and then pulsed with one of the peptides, at a concentration of 10 μg/ml, for 1 hour, in serum free medium. These APCs were then washed, and added to the CD4^+ cells. In the pulsing experiments, the peptides were solubilized in DMSO (100%) and then diluted with PBS to a final concentration of 10% DMSO. The CD4^+ cells had been cultured in a medium of L-arginine (242 mg/l), L-asparagene (50 mg/l), L-glutamine (300 mg/l), penicillin (10 IU/ml), streptomycin (100 μg/ml), 1% non-essential amino acids, 10% HS, and 10 ng/ml of recombinant human IL-2.
# The CD4^+ T cells were restimulated weekly with 1 μg/ml of the peptide being used. On day 12, each CD4^+ culture was assayed for NY-ESO-1 peptide recognition, using the ELISPOT assay of lager, et al., Proc. Natl. Acad. Sci. USA, 97(9):4760-4765 (2000), incorporated by reference. To elaborate on this procedure, flat-bottomed, 96-well nitrocellulose plates were coated with 5 μg/ml of anti-interferon-gamma antibody and incubated overnight at 4° C. After washing with PBS, plates were blocked with 10% human serum (HS) for 1 hour at 37° C. Depending on the effector:target ratio used, various numbers of presensitized CD4^+ T-cells were added to each well along with 5×10^4 autologous peptide pulsed EBV transfected B cells (“EBV-B cells”) serving as target cells and incubated for 16 hours at 37° C. in TCM without IL-2. Plates were then washed extensively (6 times with a solution of 0.05% Tween 20/PBS), and biotinylated anti-interferon-gamma detection antibody was added at a concentration of 0.5 μg/ml. After incubation for 2 h at 37° C., plates were washed and incubated with ABC-AP Vectastain for 1 hour. Plates were washed again and developed with substrate (BCIP/NPT) until blue spots were visible. The number of blue spots/well represented the proportion of NY-ESO-1 specific CD4^+ T-cells/well was finally counted under the microscope.
# The EBV-B-cells were generated from each patients' PBMC following standard methods and maintained in RPMI 1640 medium supplemented with 10 mM Hepes buffer, L-arginine (242 mg/l), L-asparagine (50mg/l), L-glutamine (300 mg/l), penicillin (10 IU/ml), streptomycin (100 μg/ml), 1% non-essential amino acids, and 10% FCS. […] PBMC's or EBV-B-cells were molecularly typed for HLA expression using standard procedures.
Substance,Patient T cells 1,Patient T cells 2,Patient T cells 3,patients whose CD4+ T cells recognized the peptide
"P13-30: synthetic 18 mer peptide, amino acids 13-30 of NY-ESO-1 (GDADGPGGPGIPDGPGGN; UniProt P78358 13-30, looked up, fragment) [Peptide P13-30]",− (− indicates <50 spots),− (− indicates <50 spots),− (− indicates <50 spots),–
"P19-36: synthetic 18 mer peptide, amino acids 19-36 of NY-ESO-1 (GGPGIPDGPGGNAGGPGE; UniProt P78358 19-36, looked up, fragment) [Peptide P19-36]",− (− indicates <50 spots),− (− indicates <50 spots),− (− indicates <50 spots),–
"P25-42: synthetic 18 mer peptide, amino acids 25-42 of NY-ESO-1 (DGPGGNAGGPGEAGATGG; UniProt P78358 25-42, looked up, fragment) [Peptide P25-42]",− (− indicates <50 spots),− (− indicates <50 spots),− (− indicates <50 spots),–
"P31-48: synthetic 18 mer peptide, amino acids 31-48 of NY-ESO-1 (AGGPGEAGATGGRGPRGA; UniProt P78358 31-48, looked up, fragment) [Peptide P31-48]",− (− indicates <50 spots),− (− indicates <50 spots),− (− indicates <50 spots),–
"P37-54: synthetic 18 mer peptide, amino acids 37-54 of NY-ESO-1 (AGATGGRGPRGAGAARAS; UniProt P78358 37-54, looked up, fragment) [Peptide P37-54]",− (− indicates <50 spots),− (− indicates <50 spots),− (− indicates <50 spots),–
"P43-60: synthetic 18 mer peptide, amino acids 43-60 of NY-ESO-1 (RGPRGAGAARASGPGGGA; UniProt P78358 43-60, looked up, fragment) [Peptide P43-60]",− (− indicates <50 spots),+ (+ indicates >50 spots (all + scores indicated were >100 spots)),− (− indicates <50 spots),one patient
"P67-84: synthetic 18 mer peptide, amino acids 67-84 of NY-ESO-1 (GAASGLNGCCRCGARGPE; UniProt P78358 67-84, looked up, fragment) [Peptide P67-84]",− (− indicates <50 spots),− (− indicates <50 spots),− (− indicates <50 spots),–
"P73-90: synthetic 18 mer peptide, amino acids 73-90 of NY-ESO-1 (NGCCRCGARGPESRLLEF; UniProt P78358 73-90, looked up, fragment) [Peptide P73-90]",− (− indicates <50 spots),− (− indicates <50 spots),− (− indicates <50 spots),–
"P79-96: synthetic 18 mer peptide, amino acids 79-96 of NY-ESO-1 (GARGPESRLLEFYLAMPF; UniProt P78358 79-96, looked up, fragment) [Peptide P79-96]",− (− indicates <50 spots),− (− indicates <50 spots),− (− indicates <50 spots),–
"p1-18: synthetic 18 mer peptide, amino acids 1-18 of NY-ESO-1 (MQAEGRGTGGSTGDADGP; UniProt P78358 1-18, looked up, fragment)",− (− indicates <50 spots),− (− indicates <50 spots),− (− indicates <50 spots),–
"p7-24: synthetic 18 mer peptide, amino acids 7-24 of NY-ESO-1 (GTGGSTGDADGPGGPGIP; UniProt P78358 7-24, looked up, fragment)",− (− indicates <50 spots),− (− indicates <50 spots),− (− indicates <50 spots),–
"p85-102: synthetic 18 mer peptide, amino acids 85-102 of NY-ESO-1 (SRLLEFYLAMPFATPMEA; UniProt P78358 85-102, looked up, fragment)",− (− indicates <50 spots),− (− indicates <50 spots),− (− indicates <50 spots),–
"p91-108: synthetic 18 mer peptide, amino acids 91-108 of NY-ESO-1 (YLAMPFATPMEAELARRS; UniProt P78358 91-108, looked up, fragment)",− (− indicates <50 spots),− (− indicates <50 spots),− (− indicates <50 spots),–
"p97-114: synthetic 18 mer peptide, amino acids 97-114 of NY-ESO-1 (ATPMEAELARRSLAQDAP; UniProt P78358 97-114, looked up, fragment)",− (− indicates <50 spots),+ (+ indicates >50 spots (all + scores indicated were >100 spots)),− (− indicates <50 spots),one patient
"p103-120: synthetic 18 mer peptide, amino acids 103-120 of NY-ESO-1 (ELARRSLAQDAPPLPVPG; UniProt P78358 103-120, looked up, fragment)",− (− indicates <50 spots),+ (+ indicates >50 spots (all + scores indicated were >100 spots)),− (− indicates <50 spots),one patient
"p109-126: synthetic 18 mer peptide, amino acids 109-126 of NY-ESO-1 (LAQDAPPLPVPGVLLKEF; UniProt P78358 109-126, looked up, fragment)",− (− indicates <50 spots),− (− indicates <50 spots),− (− indicates <50 spots),–
"p115-132: synthetic 18 mer peptide, amino acids 115-132 of NY-ESO-1 (PLPVPGVLLKEFTVSGNI; UniProt P78358 115-132, looked up, fragment)",− (− indicates <50 spots),− (− indicates <50 spots),− (− indicates <50 spots),–
"p127-144: synthetic 18 mer peptide, amino acids 127-144 of NY-ESO-1 (TVSGNILTIRLTAADHRQ; UniProt P78358 127-144, looked up, fragment)",− (− indicates <50 spots),− (− indicates <50 spots),− (− indicates <50 spots),–
"p133-150: synthetic 18 mer peptide, amino acids 133-150 of NY-ESO-1 (LTIRLTAADHRQLQLSIS; UniProt P78358 133-150, looked up, fragment)",− (− indicates <50 spots),− (− indicates <50 spots),− (− indicates <50 spots),–

# Reference: US7632506B2, “Identification of new NY-ESO-1 epitopes recognized by CD4+ T-cells” (Ludwig Institute for Cancer Research, priority 2005, dated 2009)
